# Measured values published in PubChem BioAssay AID248 (DTP/NCI, 2004).
# Several values for one entry are separate records, joined by “and”; a condition that tells them apart may be missing. Equal values may be shown once. Inconclusive results and toxic doses are left out.
# System: L1210 leukemia ip in BDF1 mice, survival T/C
# Assay: NCI In Vivo Anticancer Drug Screen. Data for tumor model L1210 Leukemia (intraperitoneal) in B6D2F1 (BDF1) mice
# Conditions: higher = longer survival
# Procedure, shortened: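 Antitumor effect is assessed in tumor-bearing animals. Survival in the compound arm is compared with a vehicle-dosed control arm and expressed as their quotient.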
smiles,measurement,setting,value
CC[C@H]1CN2CCc3cc(OC)c(OC)cc3[C@@H]2C[C@@H]1C[C@H]1NCCc2cc(O)c(OC)cc21,T/C,"endpoint: mean survival time, dose: 0.5 mg/kg/injection, schedule: Q01DX015 (ip), vehicle: saline",105 % of control and 119 % of control
same,T/C,"endpoint: mean survival time, dose: 1.0 mg/kg/injection, schedule: Q01DX009 (ip), vehicle: saline",116 % of control
same,T/C,"endpoint: mean survival time, dose: 1.0 mg/kg/injection, schedule: Q01DX015 (ip), vehicle: saline",115 % of control and 120 % of control
same,T/C,"endpoint: mean survival time, dose: 2.0 mg/kg/injection, schedule: Q01DX009 (ip), vehicle: saline",115 % of control
same,T/C,"endpoint: mean survival time, dose: 2.0 mg/kg/injection, schedule: Q## X003 (ip), vehicle: saline",104 % of control
same,T/C,"endpoint: mean survival time, dose: 2.0 mg/kg/injection, schedule: Q## X024 (ip), vehicle: saline",114 % of control
same,T/C,"endpoint: mean survival time, dose: 3.0 mg/kg/injection, schedule: Q01DX001 (oral), vehicle: saline",107 % of control
same,T/C,"endpoint: mean survival time, dose: 3.75 mg/kg/injection, schedule: Q01DX015 (ip), vehicle: saline",153 % of control
same,T/C,"endpoint: mean survival time, dose: 4.0 mg/kg/injection, schedule: Q01DX001 (ip), vehicle: saline",113 % of control
same,T/C,"endpoint: mean survival time, dose: 4.0 mg/kg/injection, schedule: Q01DX009 (ip), vehicle: saline",115 % of control
same,T/C,"endpoint: mean survival time, dose: 4.0 mg/kg/injection, schedule: Q01DX015 (ip), vehicle: saline",150 % of control
same,T/C,"endpoint: mean survival time, dose: 4.0 mg/kg/injection, schedule: Q04DX003 (ip), vehicle: saline",116 % of control
same,T/C,"endpoint: mean survival time, dose: 4.0 mg/kg/injection, schedule: Q## X002 (ip), vehicle: saline",103 % of control
same,T/C,"endpoint: mean survival time, dose: 4.0 mg/kg/injection, schedule: Q## X003 (ip), vehicle: saline",103 % of control
same,T/C,"endpoint: mean survival time, dose: 4.0 mg/kg/injection, schedule: Q## X008 (ip), vehicle: saline",116 % of control
same,T/C,"endpoint: mean survival time, dose: 4.0 mg/kg/injection, schedule: Q## X016 (ip), vehicle: saline",93 % of control
same,T/C,"endpoint: mean survival time, dose: 4.0 mg/kg/injection, schedule: Q## X024 (ip), vehicle: saline",122 % of control
same,T/C,"endpoint: mean survival time, dose: 6.0 mg/kg/injection, schedule: Q01DX001 (oral), vehicle: saline",103 % of control
same,T/C,"endpoint: mean survival time, dose: 8.0 mg/kg/injection, schedule: Q01DX001 (ip), vehicle: saline",111 % of control
same,T/C,"endpoint: mean survival time, dose: 8.0 mg/kg/injection, schedule: Q01DX005 (ip), vehicle: saline",157 % of control
same,T/C,"endpoint: mean survival time, dose: 8.0 mg/kg/injection, schedule: Q01DX009 (ip), vehicle: saline",112 % of control and 86 % of control
same,T/C,"endpoint: mean survival time, dose: 8.0 mg/kg/injection, schedule: Q04DX003 (ip), vehicle: saline",118 % of control
same,T/C,"endpoint: mean survival time, dose: 8.0 mg/kg/injection, schedule: Q## X002 (ip), vehicle: saline",119 % of control
same,T/C,"endpoint: mean survival time, dose: 8.0 mg/kg/injection, schedule: Q## X003 (ip), vehicle: saline",123 % of control
same,T/C,"endpoint: mean survival time, dose: 8.0 mg/kg/injection, schedule: Q## X008 (ip), vehicle: saline",111 % of control
same,T/C,"endpoint: mean survival time, dose: 8.0 mg/kg/injection, schedule: Q## X016 (ip), vehicle: saline",103 % of control
same,T/C,"endpoint: mean survival time, dose: 8.0 mg/kg/injection, schedule: Q## X024 (ip), vehicle: saline",101 % of control
same,T/C,"endpoint: mean survival time, dose: 12.0 mg/kg/injection, schedule: Q01DX001 (oral), vehicle: saline",96 % of control
same,T/C,"endpoint: mean survival time, dose: 15.0 mg/kg/injection, schedule: Q01DX015 (ip), vehicle: saline",104 % of control
same,T/C,"endpoint: mean survival time, dose: 16.0 mg/kg/injection, schedule: Q01DX001 (ip), vehicle: saline",118 % of control
same,T/C,"endpoint: mean survival time, dose: 16.0 mg/kg/injection, schedule: Q01DX005 (ip), vehicle: saline",162 % of control
same,T/C,"endpoint: mean survival time, dose: 16.0 mg/kg/injection, schedule: Q01DX009 (ip), vehicle: saline",123 % of control
same,T/C,"endpoint: mean survival time, dose: 16.0 mg/kg/injection, schedule: Q01DX015 (ip), vehicle: saline",102 % of control
same,T/C,"endpoint: mean survival time, dose: 16.0 mg/kg/injection, schedule: Q## X002 (ip), vehicle: saline",112 % of control
same,T/C,"endpoint: mean survival time, dose: 16.0 mg/kg/injection, schedule: Q## X016 (ip), vehicle: saline",107 % of control
same,T/C,"endpoint: mean survival time, dose: 16.0 mg/kg/injection, schedule: Q## X024 (ip), vehicle: saline",86 % of control
same,T/C,"endpoint: mean survival time, dose: 24.0 mg/kg/injection, schedule: Q01DX001 (oral), vehicle: saline",102 % of control
same,T/C,"endpoint: mean survival time, dose: 32.0 mg/kg/injection, schedule: Q01DX001 (ip), vehicle: saline",111 % of control
same,T/C,"endpoint: mean survival time, dose: 32.0 mg/kg/injection, schedule: Q04DX003 (ip), vehicle: saline",123 % of control
same,T/C,"endpoint: mean survival time, dose: 48.0 mg/kg/injection, schedule: Q01DX001 (oral), vehicle: saline",121 % of control
same,T/C,"endpoint: mean survival time, dose: 64.0 mg/kg/injection, schedule: Q01DX001 (ip), vehicle: saline",118 % of control
same,T/C,"endpoint: median survival time, dose: 4.0 mg/kg/injection, schedule: Q04DX003 (ip), vehicle: alkali diluted with saline",106 % of control
same,T/C,"endpoint: median survival time, dose: 8.0 mg/kg/injection, schedule: Q04DX003 (ip), vehicle: alkali diluted with saline",113 % of control
same,T/C,"endpoint: median survival time, dose: 16.0 mg/kg/injection, schedule: Q04DX003 (ip), vehicle: alkali diluted with saline",121 % of control
